From the supplement of paper PMC10307832

Columns and labels:
Test in all cases: relative viability (nuclei count vs DMSO), 5 days (fraction); higher = more cells survive
[1] = compound: CC1=CC(=CC=C1)NC2=NC(=CS2)C3=CC=NC=C3 + CC(=O)c1c(C)c2cnc(Nc3ccc(N4CCNCC4)cn3)nc2n(C2CCCC2)c1=O [Palbociclib] (partner 0.5 µM)
Summary of the method: (§1)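 One day after seeding in 1536-well plates, lung cancer cell lines were dosed by pin tool. Dosing was either single-drug or a fixed anchor-drug dose plus five library-drug doses (not always all listed) in √10 steps. After 5 days, nuclei were stained in one fix-and-stain step and counted on 4× images, and relative viability is the nuclei count of treated wells over that of vehicle wells, given as the median of duplicate plates.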

[2] = compound: CC1=CC(=CC=C1)NC2=NC(=CS2)C3=CC=NC=C3 + Cc1nc(NC(=O)N2CCC[C@H]2C(N)=O)sc1-c1ccnc(C(C)(C)C(F)(F)F)c1 [Alpelisib] (partner 2 µM)
Summary of the method: as §1

[3] = compound: Cc1ccc(NC(=O)c2ccc(CN3CCN(C)CC3)cc2)cc1Nc1nc(-c2cccnc2)cs1 [Masitinib] + CS(=O)(=O)N1CCN(Cc2cc3nc(-c4cccc5[nH]ncc45)nc(N4CCOCC4)c3s2)CC1 [Pictilisib] (partner 1 µM)
Summary of the method: as §1

[4] = compound: Cc1ccc(NC(=O)c2ccc(CN3CCN(C)CC3)cc2)cc1Nc1nc(-c2cccnc2)cs1 [Masitinib] + Nc1nc2[nH]cc(CCc3ccc(C(=O)N[C@@H](CCC(=O)O)C(=O)O)cc3)c2c(=O)[nH]1 [Pemetrexed] (partner 0.2 µM)
Summary of the method: as §1

Row | Cell Line | relative viability ([1]; first compound 0.08 µM) | relative viability ([1]; first compound 0.253 µM) | relative viability ([1]; first compound 0.8 µM) | relative viability ([1]; first compound 2.53 µM) | relative viability ([1]; first compound 8 µM) | relative viability ([2]; first compound 0.08 µM) | relative viability ([2]; first compound 0.253 µM) | relative viability ([2]; first compound 0.8 µM) | relative viability ([2]; first compound 2.53 µM) | relative viability ([2]; first compound 8 µM) | relative viability ([3]; first compound 0.01 µM) | relative viability ([3]; first compound 0.03162 µM) | relative viability ([3]; first compound 0.1 µM) | relative viability ([3]; first compound 0.3162 µM) | relative viability ([3]; first compound 1 µM) | relative viability ([4]; first compound 0.01 µM) | relative viability ([4]; first compound 0.03162 µM) | relative viability ([4]; first compound 0.1 µM) | relative viability ([4]; first compound 0.3162 µM) | relative viability ([4]; first compound 1 µM)
1 | NCI-H23 | 0.37 | 0.459 | 0.518 | 0.479 | 0.524 | 0.567 | 0.677 | 0.727 | 0.634 | 0.738 | 0.434 | 0.493 | 0.525 | 0.495 | 0.457 | 0.795 | 0.607 | 0.699 | 0.641 | 0.626
2 | PC-3 [JPC-3] | 0.542 | – | 0.503 | 0.477 | 0.481 | 0.95 | 0.939 | 0.845 | 0.875 | 0.84 | 0.71 | 0.761 | 0.761 | 0.459 | 0.656 | 1.04 | 0.733 | 1.06 | 1.37 | 0.87
3 | NCI-H520 | 0.217 | 0.234 | 0.239 | 0.261 | 0.291 | 0.741 | 0.855 | 0.726 | 1.09 | 1.02 | 0.336 | – | 0.366 | 0.313 | 0.271 | 0.652 | 0.851 | 0.731 | 0.77 | 0.857
4 | NCI-H1666 | 0.664 | 0.631 | 0.546 | 0.584 | 0.617 | 0.44 | 0.597 | 0.447 | 0.472 | 0.298 | 0.393 | 0.382 | 0.474 | 0.246 | 0.346 | 0.943 | 0.842 | 0.885 | 0.708 | 0.77
5 | NCI-H1792 | 0.596 | – | 0.614 | 0.624 | 0.672 | 0.628 | 0.523 | 0.567 | 0.443 | 0.589 | 0.277 | 0.209 | 0.288 | 0.197 | 0.225 | 0.846 | 0.525 | 0.93 | 0.548 | 0.707
6 | HARA | 0.238 | 0.237 | 0.196 | 0.222 | 0.324 | 0.621 | 0.513 | 0.596 | 0.724 | 0.542 | 0.389 | 0.331 | 0.448 | 0.372 | 0.412 | 0.217 | 0.324 | 0.24 | – | 0.279
7 | NCI-H647 | 0.379 | 0.262 | 0.369 | 0.442 | 0.365 | 1.05 | 0.935 | 1.11 | 1.08 | 0.751 | 0.424 | 0.356 | 0.44 | 0.333 | 0.321 | 0.166 | 0.178 | 0.174 | 0.185 | 0.164
8 | NCI-H2347 | 0.392 | 0.417 | 0.413 | 0.444 | 0.436 | 0.821 | 1.11 | 0.614 | 1.07 | 0.993 | 0.742 | 0.646 | 0.668 | 0.825 | 0.685 | 0.425 | 0.406 | 0.385 | 0.446 | 0.417
9 | LCLC-97TM1 | 0.172 | 0.216 | 0.206 | 0.217 | 0.276 | – | – | 0.298 | 0.258 | 0.238 | 0.156 | 0.172 | 0.287 | 0.218 | 0.2 | 0.168 | 0.154 | 0.169 | 0.173 | 0.168
10 | EPLC-272H | 0.309 | 0.315 | 0.372 | – | 0.332 | 0.894 | – | 0.927 | – | 0.869 | 0.29 | 0.304 | 0.319 | 0.284 | 0.293 | 0.32 | – | 0.348 | 0.399 | 0.249
11 | NCI-H1975 | 0.497 | 0.416 | 0.51 | 0.374 | 0.241 | 0.609 | 0.5 | 0.553 | 0.475 | 0.358 | 0.288 | 0.305 | 0.331 | 0.224 | 0.289 | 0.305 | 0.3 | 0.287 | 0.291 | 0.303
12 | NCI-H3122 | 0.185 | 0.193 | 0.384 | 0.253 | 0.193 | 0.724 | 0.794 | 0.843 | 1.01 | 0.923 | 0.579 | 0.623 | 0.595 | 0.677 | 0.574 | 0.175 | 0.196 | 0.193 | 0.201 | 0.191
13 | NCI-H441 | 0.214 | 0.205 | 0.261 | 0.224 | 0.184 | 0.659 | 0.75 | 0.73 | 0.577 | 0.811 | 0.654 | 0.449 | 0.601 | 0.482 | 0.446 | 0.261 | 0.273 | 0.244 | 0.261 | 0.256
14 | NCI-H358 | 0.132 | 0.15 | 0.151 | 0.144 | 0.129 | 0.662 | 0.772 | 0.645 | 0.929 | 0.791 | 0.328 | 0.319 | 0.34 | 0.394 | 0.296 | 0.16 | 0.169 | 0.167 | 0.163 | 0.178
15 | NCI-H1395 | 0.577 | – | 0.546 | 0.556 | 0.606 | 0.838 | 0.909 | 1.23 | 1.01 | 0.992 | 0.695 | 0.577 | 0.645 | 0.565 | 0.58 | 1.02 | 0.872 | 1.02 | 0.965 | 0.717
16 | SK-MES-1 | 0.259 | 0.243 | 0.328 | 0.311 | 0.32 | 0.626 | 0.862 | 0.893 | 0.853 | 0.848 | 0.346 | 0.312 | 0.406 | 0.332 | 0.371 | 0.844 | 0.924 | 0.873 | 0.877 | 0.967
17 | PC-14 | 0.502 | 0.484 | 0.553 | 0.515 | 0.394 | 0.942 | 0.988 | 0.851 | 0.989 | 0.94 | 0.603 | 0.613 | 0.77 | 0.747 | 0.657 | 0.137 | 0.144 | 0.13 | 0.12 | 0.141
18 | CAL-12T | 0.402 | 0.414 | 0.391 | 0.329 | 0.586 | 1.22 | 1.13 | 1.33 | 1.07 | 1.22 | 0.519 | 0.377 | 0.694 | 0.392 | 0.293 | 1.11 | 1.15 | 1.29 | 1.4 | 1.28
